Values after ≈ are worked out from the molar mass of the structure shown. Read-outs that look alike come from different tables or passages of the source.
Legend:
Assay in all cases: In vitro activity, dilution method in liquid medium (MIC)
Format in all cases: cell-based
[1] = tested on: Enterobacter cloacae 1321 E; settings: read-out: concentrations minimales inhibitrices (C. M. I.)
Method: (§1) Etude pharmacologiaue des produits de l'invention. Activité in vitro, méthode des dilutions en milieu liquide.
(§2) On prépare une série de tubes dans lesquels on répartit une même quantité de milieu nutritif stérile. On distribue dans chaque tube des quantités croissantes du produit à étudier, puis chaque tube est ensemencé avec une souche bactérienne. Après incubation de vingt-quatre ou quarante-huit heures à l'étuve à 37°C, l'inhibition de la croissance est appréciée par transillumination ce qui permet de déterminer les concentrations minimales inhibitrices (C. M. I.) exprimées en µg/cm3.

Escherichia Coli 078 = settings: read-out: concentrations minimales inhibitrices (C. M. I.)
Method: as §1, §2

Escherichia Coli 1507 E = settings: COLI1507E, read-out: concentrations minimales inhibitrices (C. M. I.)
Method: as §1, §2

Escherichia Coli 1894 = settings: read-out: concentrations minimales inhibitrices (C. M. I.)
Method: as §1, §2

Escherichia Coli DC0 = settings: read-out: concentrations minimales inhibitrices (C. M. I.)
Method: as §1, §2

Escherichia Coli DC2 = settings: read-out: concentrations minimales inhibitrices (C. M. I.)
Method: as §1, §2

Escherichia Coli TEM = settings: read-out: concentrations minimales inhibitrices (C. M. I.)
Method: as §1, §2

[2] = tested on: Klebsiella Aeruginosa 1522 E; settings: read-out: concentrations minimales inhibitrices (C. M. I.)
Method: as §1, §2

[3] = tested on: Klebsiella pneumonae 52145; settings: read-out: concentrations minimales inhibitrices (C. M. I.)
Method: as §1, §2

Proteus mirabilis A 235 = settings: read-out: concentrations minimales inhibitrices (C. M. I.)
Method: as §1, §2

Proteus vulgaris A 232 = settings: read-out: concentrations minimales inhibitrices (C. M. I.)
Method: as §1, §2

Providencia DU 48 = settings: read-out: concentrations minimales inhibitrices (C. M. I.)
Method: as §1, §2

[4] = tested on: Pseudomonas aeruginosa 1771 m; settings: read-out: concentrations minimales inhibitrices (C. M. I.)
Method: as §1, §2

[5] = tested on: Salmonella typhimurium MZ 11; settings: Salmonella enterica, read-out: concentrations minimales inhibitrices (C. M. I.)
Method: as §1, §2

Serratia marcesceus 2532 = settings: read-out: concentrations minimales inhibitrices (C. M. I.)
Method: as §1, §2

[6] = COLI078, 24 H incubation at 37°C
[7] = COLI078, 48 H incubation at 37°C
[8] = COLI1894, 24 H incubation at 37°C
[9] = COLI1894, 48 H incubation at 37°C
[10] = COLIDC0, 24 H incubation at 37°C
[11] = COLIDC0, 48 H incubation at 37°C
[12] = COLIDC2, 24 H incubation at 37°C
[13] = COLIDC2, 48 H incubation at 37°C

SMILES	MIC ([1]; 24 H incubation at 37°C) [µg/mL]	MIC ([1]; 48 H incubation at 37°C) [µg/mL]	MIC (Escherichia Coli 078; [6]) [µg/mL]	MIC (Escherichia Coli 078; [7]) [µg/mL]	MIC (Escherichia Coli 1507 E; 24 H incubation at 37°C) [µg/mL]	MIC (Escherichia Coli 1507 E; 48 H incubation at 37°C) [µg/mL]	MIC (Escherichia Coli 1894; [8]) [µg/mL]	MIC (Escherichia Coli 1894; [9]) [µg/mL]	MIC (Escherichia Coli DC0; [10]) [µg/mL]	MIC (Escherichia Coli DC0; [11]) [µg/mL]	MIC (Escherichia Coli DC2; [12]) [µg/mL]	MIC (Escherichia Coli DC2; [13]) [µg/mL]	MIC (Escherichia Coli TEM; 24 h) [µg/mL]	MIC (Escherichia Coli TEM; 48 h) [µg/mL]	MIC ([2]; 24 H incubation at 37°C) [µg/mL]	MIC ([2]; 48 H incubation at 37°C) [µg/mL]	MIC ([3]; 24 H incubation at 37°C) [µg/mL]	MIC ([3]; 48 H incubation at 37°C) [µg/mL]	MIC (Proteus mirabilis A 235; A235, 24 H incubation at 37°C) [µg/mL]	MIC (Proteus mirabilis A 235; A235, 48 H incubation at 37°C) [µg/mL]	also measured
CO/N=C(\C(=O)N[C@H]1CN(c2nn[nH]n2)C1=O)c1csc(N)n1 [Prod. ex.3, (3S) 3-//2-(2-aminothiazol-4-yl) 2-méthoxyimino acétyl /amino/ 1-(lH-tétrazol-5-yl) 2-azétidinone]	0.3 (≈ 0.889 µM)	0.3 (≈ 0.889 µM)	0.3 (≈ 0.889 µM)	0.3 (≈ 0.889 µM)	0.6 (≈ 1.78 µM)	0.6 (≈ 1.78 µM)	0.15 (≈ 0.445 µM)	0.15 (≈ 0.445 µM)	0.6 (≈ 1.78 µM)	1.2 (≈ 3.56 µM)	0.6 (≈ 1.78 µM)	0.6 (≈ 1.78 µM)	10 (≈ 29.6 µM)	10 (≈ 29.6 µM)	0.3 (≈ 0.889 µM)	0.3 (≈ 0.889 µM)	1.2 (≈ 3.56 µM)	1.2 (≈ 3.56 µM)	0.6 (≈ 1.78 µM)	0.6 (≈ 1.78 µM)	MIC (Proteus vulgaris A 232; A232, 24 H incubation at 37°C): 0.3 µg/mL (≈ 0.889 µM); MIC (Proteus vulgaris A 232; A232, 48 H incubation at 37°C): 0.3 µg/mL (≈ 0.889 µM); MIC (Providencia DU 48; DU48, 24 H incubation at 37°C): 0.3 µg/mL (≈ 0.889 µM); MIC (Providencia DU 48; DU48, 48 H incubation at 37°C): 0.6 µg/mL (≈ 1.78 µM); MIC ([4]; 24 H incubation at 37°C): 5 µg/mL (≈ 14.8 µM); MIC ([4]; 48 H incubation at 37°C): 10 µg/mL (≈ 29.6 µM); MIC ([5]; 24 H incubation at 37°C): 0.3 µg/mL (≈ 0.889 µM); MIC ([5]; 48 H incubation at 37°C): 0.3 µg/mL (≈ 0.889 µM); MIC (Serratia marcesceus 2532; 24 H incubation at 37°C): 2.5 µg/mL (≈ 7.41 µM); MIC (Serratia marcesceus 2532; 48 H incubation at 37°C): 5 µg/mL (≈ 14.8 µM)
C[C@@H]1[C@H](NC(=O)/C(=N\OCC(=O)O)c2csc(N)n2)C(=O)N1c1nn[nH]n1 (racemic) [Prod. ex. 6, (3SR, 4RS) 3-//2-(2-aminothiazol-4-yl) 2/-(carboxyméthoxy) imino/acétyl/amino/ 4-méthyl 1-(1H-tétrazol-5-yl) 2-azétidinone isomère syn]	0.3 (≈ 0.759 µM)	0.6 (≈ 1.52 µM)	0.3 (≈ 0.759 µM)	0.3 (≈ 0.759 µM)	0.6 (≈ 1.52 µM)	0.6 (≈ 1.52 µM)	0.6 (≈ 1.52 µM)	0.6 (≈ 1.52 µM)	0.6 (≈ 1.52 µM)	0.6 (≈ 1.52 µM)	0.3 (≈ 0.759 µM)	0.3 (≈ 0.759 µM)	0.6 (≈ 1.52 µM)	0.6 (≈ 1.52 µM)	0.6 (≈ 1.52 µM)	0.6 (≈ 1.52 µM)	2.5 (≈ 6.32 µM)	2.5 (≈ 6.32 µM)	0.15 (≈ 0.379 µM)	0.15 (≈ 0.379 µM)	MIC (Proteus vulgaris A 232; A232, 24 H incubation at 37°C): 0.08 µg/mL (≈ 0.202 µM); MIC (Proteus vulgaris A 232; A232, 48 H incubation at 37°C): 0.15 µg/mL (≈ 0.379 µM); MIC (Providencia DU 48; DU48, 24 H incubation at 37°C): 0.6 µg/mL (≈ 1.52 µM); MIC (Providencia DU 48; DU48, 48 H incubation at 37°C): 0.6 µg/mL (≈ 1.52 µM); MIC ([4]; 24 H incubation at 37°C): 2.5 µg/mL (≈ 6.32 µM); MIC ([4]; 48 H incubation at 37°C): 5 µg/mL (≈ 12.6 µM); MIC ([5]; 24 H incubation at 37°C): 0.6 µg/mL (≈ 1.52 µM); MIC ([5]; 48 H incubation at 37°C): 0.6 µg/mL (≈ 1.52 µM); MIC (Serratia marcesceus 2532; 24 H incubation at 37°C): 2.5 µg/mL (≈ 6.32 µM); MIC (Serratia marcesceus 2532; 48 H incubation at 37°C): 5 µg/mL (≈ 12.6 µM)
CO/N=C(\C(=O)N[C@@H]1C(=O)N(c2nn[nH]n2)[C@H]1C)c1csc(N)n1 (racemic) [Prod. ex. 2, (3SR, 4SR) 3-//2-(2-aminothiazol-4-yl) 2-méthoxyimino acétyl/ amino/ 4-méthyl 1-(1H-tétrazol-5-yl) 2-azétidinone]	1.2 (≈ 3.42 µM)	1.2 (≈ 3.42 µM)	0.6 (≈ 1.71 µM)	0.6 (≈ 1.71 µM)	0.6 (≈ 1.71 µM)	0.6 (≈ 1.71 µM)	0.3 (≈ 0.854 µM)	0.3 (≈ 0.854 µM)	2.5 (≈ 7.12 µM)	2.5 (≈ 7.12 µM)	0.6 (≈ 1.71 µM)	1.2 (≈ 3.42 µM)	10 (≈ 28.5 µM)	10 (≈ 28.5 µM)	0.6 (≈ 1.71 µM)	0.6 (≈ 1.71 µM)	2.5 (≈ 7.12 µM)	2.5 (≈ 7.12 µM)	0.6 (≈ 1.71 µM)	1.2 (≈ 3.42 µM)	MIC (Proteus vulgaris A 232; A232, 24 H incubation at 37°C): 1.2 µg/mL (≈ 3.42 µM); MIC (Proteus vulgaris A 232; A232, 48 H incubation at 37°C): 2.5 µg/mL (≈ 7.12 µM); MIC (Providencia DU 48; DU48, 24 H incubation at 37°C): 1.2 µg/mL (≈ 3.42 µM); MIC (Providencia DU 48; DU48, 48 H incubation at 37°C): 1.2 µg/mL (≈ 3.42 µM); MIC ([4]; 24 H incubation at 37°C): ≤ 5 µg/mL; MIC ([4]; 48 H incubation at 37°C): ≤ 5 µg/mL; MIC ([5]; 24 H incubation at 37°C): 1.2 µg/mL (≈ 3.42 µM); MIC ([5]; 48 H incubation at 37°C): 2.5 µg/mL (≈ 7.12 µM); MIC (Serratia marcesceus 2532; 24 H incubation at 37°C): 20 µg/mL (≈ 56.9 µM); MIC (Serratia marcesceus 2532; 48 H incubation at 37°C): > 40 µg/mL
CO/N=C(\C(=O)N[C@@H]1C(=O)N(c2nn[nH]n2)[C@@H]1CF)c1csc(N)n1 (racemic) [Prod. ex. 11, (3SR,4SR) 3-//2-(2-aminothiazol-4-yl) 2-méthoxyimino acétyl/ amino/ 4-(fluorométhyl) 1-(1-H-tétrazol-5-yl) 2-azétidinone]	0.3 (≈ 0.812 µM)	0.3 (≈ 0.812 µM)	0.15 (≈ 0.406 µM)	0.15 (≈ 0.406 µM)	0.08 (≈ 0.217 µM)	0.08 (≈ 0.217 µM)	≤ 0.04	≤ 0.04	0.6 (≈ 1.62 µM)	0.6 (≈ 1.62 µM)	0.15 (≈ 0.406 µM)	0.15 (≈ 0.406 µM)	0.6 (≈ 1.62 µM)	0.6 (≈ 1.62 µM)	0.6 (≈ 1.62 µM)	0.6 (≈ 1.62 µM)	1.2 (≈ 3.25 µM)	1.2 (≈ 3.25 µM)	0.15 (≈ 0.406 µM)	0.15 (≈ 0.406 µM)	MIC (Proteus vulgaris A 232; A232, 24 H incubation at 37°C): 0.15 µg/mL (≈ 0.406 µM); MIC (Proteus vulgaris A 232; A232, 48 H incubation at 37°C): 0.15 µg/mL (≈ 0.406 µM); MIC (Providencia DU 48; DU48, 24 H incubation at 37°C): 1.2 µg/mL (≈ 3.25 µM); MIC (Providencia DU 48; DU48, 48 H incubation at 37°C): 1.2 µg/mL (≈ 3.25 µM); MIC ([5]; 24 H incubation at 37°C): 0.3 µg/mL (≈ 0.812 µM); MIC ([5]; 48 H incubation at 37°C): 0.3 µg/mL (≈ 0.812 µM); MIC (Serratia marcesceus 2532; 24 H incubation at 37°C): 10 µg/mL (≈ 27.1 µM); MIC (Serratia marcesceus 2532; 48 H incubation at 37°C): 10 µg/mL (≈ 27.1 µM)
